Where “and” joins values, the source holds several entries; their conditions need not be identical. Equal values may be shown once. Where a name gives a salt, the structure may show the parent alone. Read-outs that look alike come from different tables or passages of the source.
Assays:
ICR mouse = assay: Passive avoidance test in scopolamine-treated mice; format: in vivo; conditions: scopolamine i.p., mean ± standard error
Description: Each material prepared in the preparation example was prepared so that each may be orally administered to 7 experimental groups in the following and Table 1.
In the following Table 1, only the excipient prepared in the preparation examples was orally administered to a normal control group and a negative control group, respectively, scopolamine was administered to the remaining experimental groups (G2-G7) other than the normal control group (G1) in the behavioral experiment of Test Example 4 to cause cognitive function decline and a memory impairment effect, and then the behavior was observed.
After the test material (drug) of Test Example 3 was administered to each experimental group during the test, a passive avoidance test was performed, and change in mouse behavior was observed.
After each of the test materials was administered to each experimental group of Table 1 of Test Example 3, the passive avoidance test was performed on day 25 by the following procedure: • a) The object was put into an unlit white room of a conditioning box for the passive avoidance test, and then was adapted for 60 seconds. • b) A guillotine door was opened simultaneously with turning on a LED light of the white room, and the object was allowed to explore a dark room for 180 seconds for adaptation. • c) On the next day (day 26) also, the above process was performed and repeated once more, and the object was adapted so that it took around 30 seconds to enter the dark room after turning on the LED light. • d) After administering the drug 1 hour before learning on day 27, 4 mL/kg of Scopolamine which was dissolved at 0.25 mg/mL in a 0.9% saline solution was intraperitoneally administered to the objects of the remaining experimental groups other than the normal control group (G1), respectively, after 30 minutes, and the objects were allowed to stand for 30 minutes in the breeding box. • e) 30 minutes after administering Scopolamine, the objects were put into the unlit white room, the guillotine door was opened simultaneously with turning on the LED light after 10 seconds. When all of the four legs of the objects entered to the dark room, the guillotine door was closed, the time spent (latency time) was measured with a timer, and electrical stimulation was given at 0.5 mA for 3 seconds.

IL-1β = assay: Inflammatory cytokine IL-1β in hippocampus (ELISA); format: in vivo, mouse; conditions: scopolamine, mean ± standard error
Description: (§1) On the next day of the end of the passive avoidance test, the test material was administered, and the objects were allowed to stand in a home cage for 30 minutes. Subsequently, Scopolamine was intraperitoneally administered at a dose of 1 mg/kg, and then the objects were allowed to stand in a home cage for 30 minutes.
(§2) A brain tissue was separately separated and stored at −70° C. until analysis.
(§3) Inflammatory cytokine in a brain tissue was measured with a supernatant liquid obtained by adding a tissue protein extraction reagent (Biovision, CA, USA) to a brain tissue, crushing it, and centrifuging it, using an ELISA Kit (R&D System, MN, USA).

TNF-α = assay: Inflammatory cytokine TNF-α in hippocampus (ELISA); format: in vivo, mouse; conditions: scopolamine, mean ± standard error
Description: as §1, §2, §3

acetylcholine = assay: Acetylcholine content in hippocampus after passive avoidance test; format: in vivo, mouse; conditions: scopolamine, mean ± standard error
Description: as §1, §2
A choline assay buffer (Biovision, CA, USA) was added to a hippocampal tissue of the separated brain, crushed, and then centrifuged to obtain a supernatant liquid, which was used in the test.
The amount of acetylcholine in the supernatant liquid was measured using a choline/acetylcholine quantification kit (Biovision, CA, USA).

sphingoid base = assay: Sphingoid base content in brain tissue (forebrain); format: in vivo, mouse; set-up: Sphingoid base content, Sphingosine (SPN) / Sphingoid base content, S1P / Sphingoid base content, Sphinganine (Sa) / Sphingoid base content, Sa1P: unit not given here; conditions: for Sphingoid base content, S1P / Sphingoid base content, Sa1P / Sphingoid base content, Sphinganine (Sa) / Sphingoid base content, Sphingosine (SPN): Neuromide 100 mg/kg oral, scopolamine
Description: Two types of forebrain parts of the experimental groups G1, G2, and G5 in the separated brain tissue were secured, respectively, the contents of sphingoid base were analyzed, and the average and the deviation were calculated.
At this time, the measurement of contents of sphingosine (SPN), sphinganine (Sa), sphingosine-1-phosphate (S1P), and sphinganine-1-phosphate (Sa1P) which are sphingoid bases was performed by confirmation and quantitative method of sphingoid bases commonly known to a person skilled in the art.

ceramide = assay: Ceramide content in brain tissue (forebrain); format: in vivo, mouse; conditions: for Ceramide content, N-acyl chain length C14 / Ceramide content, N-acyl chain length C16 / Ceramide content, N-acyl chain length C18 / Ceramide content, N-acyl chain length C20 / Ceramide content, N-acyl chain length C22 / Ceramide content, N-acyl chain length C24 / Ceramide content, N-acyl chain length C24:1 / Ceramide content, N-acyl chain length C26 / Ceramide content, N-acyl chain length C26:1 / Ceramide content, Total: Neuromide 100 mg/kg oral, scopolamine
Description: Two types of forebrain parts of experimental groups G1, G2, and G5 in the brain tissues separated above were secured, respectively.
The ceramide contents were analyzed therefrom, and the average and the deviation thereof were calculated.
At this time, the measurement of the ceramide content was performed by confirmation and quantitative method of ceramide commonly known to a person skilled in the art.

[1] = tested on: Acetylcholine esterase (AchE); format: in vivo; conditions: forebrain, scopolamine, mean ± standard error
Description: as §1, §2
Acetylcholine esterase (AchE) activity was measured with a supernatant liquid obtained by adding a tissue protein extraction reagent (Biovision, CA, USA) to a forebrain tissue, crushing it, and centrifuging it, using an acetylcholinesterase activity assay kit (Biovision, CA, USA).

[2] = Body weight during the test; format: in vivo, mouse; conditions: mean ± standard error
Description: For all objects of each experimental group, when drug administration started, the body weight was measured twice a week from the start of administration until the end of the experiment, and was measured on the date of the final autopsy.

[3] = Donepezil 1 mg/kg oral, hydrochloride
[4] = Average of two forebrain samples
[5] = individual forebrain samples 5-2, 5-3, listed as Example 3

Compound: COc1cc2c(cc1OC)C(=O)C(CC1CCN(Cc3ccccc3)CC1)C2 (stereo not shown) [Donepezil, Donepezil hydrochloride, reference compound]
- Passive avoidance test Time taken (latency time) (ICR mouse; [3]): 45.6 s and 45.6 ± 14 s
- IL-1β (IL-1β; [3]): 160.9 pg/mg tissue protein and 160.9 ± 23.2 pg/mg tissue protein
- TNF-α (TNF-α; [3]): 186.2 pg/mg tissue protein and 186.2 ± 30.3 pg/mg tissue protein
- Acetylcholine (acetylcholine; [3]): 1.8 Nmol/mg protein and 1.8 ± 0.2 Nmol/mg protein

Compound: CCCCCCCCCCCCCCCC(=O)NC(CO)CO [Neuromide, N-palmitoyl serinol]
- Passive avoidance test Time taken (latency time) (ICR mouse; Neuromide 16 mg/kg oral): 22.3 s and 22.3 ± 3.6 s
- Passive avoidance test Time taken (latency time) (ICR mouse; Neuromide 40 mg/kg oral): 31 s and 31 ± 8.9 s
- Passive avoidance test Time taken (latency time) (ICR mouse; Neuromide 100 mg/kg oral): 35.7 s and 35.7 ± 11.5 s
- Sphingoid base content, S1P (sphingoid base; [4]): 183.74
- Sphingoid base content, Sa1P (sphingoid base; [4]): 69.57
- Sphingoid base content, Sphinganine (Sa) (sphingoid base; [4]): 545.74
- Sphingoid base content, Sphingosine (SPN) (sphingoid base; [4]): 2010.00
- S1P increase as compared with the normal control group (sphingoid base; forebrain, Neuromide 100 mg/kg): ≥ 20%
- Sphingoid base content, S1P (sphingoid base; [5]): 159.43 and 208.05
- Sphingoid base content, Sa1P (sphingoid base; [5]): 69.16 and 69.98
- Sphingoid base content, Sphinganine (Sa) (sphingoid base; [5]): 506.47 and 585.01
- Sphingoid base content, Sphingosine (SPN) (sphingoid base; [5]): 1861.23 and 2158.78
- IL-1β (IL-1β; Neuromide 16 mg/kg oral): 194.7 pg/mg tissue protein and 194.7 ± 30.6 pg/mg tissue protein
- IL-1β (IL-1β; Neuromide 40 mg/kg oral): 188.6 pg/mg tissue protein and 188.6 ± 32.4 pg/mg tissue protein
- IL-1β (IL-1β; Neuromide 100 mg/kg oral): 151.5 pg/mg tissue protein and 151.5 ± 24.9 pg/mg tissue protein
- Ceramide content, N-acyl chain length C14 (ceramide; [4]): 2.71
- Ceramide content, N-acyl chain length C16 (ceramide; [4]): 284.09
- Ceramide content, N-acyl chain length C18 (ceramide; [4]): 3956.61
- Ceramide content, N-acyl chain length C20 (ceramide; [4]): 92.88
- Ceramide content, N-acyl chain length C22 (ceramide; [4]): 51.78
- Ceramide content, N-acyl chain length C24 (ceramide; [4]): 68.30
- Ceramide content, N-acyl chain length C24:1 (ceramide; [4]): 453.42
- Ceramide content, N-acyl chain length C26 (ceramide; [4]): 11.09
- Ceramide content, N-acyl chain length C26:1 (ceramide; [4]): 4.59
- Ceramide content, Total (ceramide; [4]): 4925.46
- ceramide synthesis amount (ceramide; forebrain, Neuromide 100 mg/kg): significantly increased
- Ceramide content, N-acyl chain length C14 (ceramide; [5]): 2.92 and 2.50
- Ceramide content, N-acyl chain length C16 (ceramide; [5]): 288.68 and 279.51
- Ceramide content, N-acyl chain length C18 (ceramide; [5]): 3980.71 and 3932.52
- Ceramide content, N-acyl chain length C20 (ceramide; [5]): 94.95 and 90.81
- Ceramide content, N-acyl chain length C22 (ceramide; [5]): 60.05 and 43.51
- Ceramide content, N-acyl chain length C24 (ceramide; [5]): 77.31 and 59.29
- Ceramide content, N-acyl chain length C24:1 (ceramide; [5]): 498.48 and 408.35
- Ceramide content, N-acyl chain length C26 (ceramide; [5]): 12.46 and 9.72
- Ceramide content, N-acyl chain length C26:1 (ceramide; [5]): 4.78 and 4.40
- Ceramide content, Total (ceramide; [5]): 5020.32 and 4830.60
- TNF-α (TNF-α; Neuromide 16 mg/kg oral): 211.5 pg/mg tissue protein and 211.5 ± 25.3 pg/mg tissue protein
- TNF-α (TNF-α; Neuromide 40 mg/kg oral): 196.2 pg/mg tissue protein and 196.2 ± 28.4 pg/mg tissue protein
- TNF-α (TNF-α; Neuromide 100 mg/kg oral): 189.2 pg/mg tissue protein and 189.2 ± 33 pg/mg tissue protein
- Acetylcholinesterase (AchE) activity ([1]; Neuromide 16 mg/kg oral): 7.17 mU/mg tissue protein and 7.17 ± 1.75 mU/mg tissue protein
- Acetylcholinesterase (AchE) activity ([1]; Neuromide 40 mg/kg oral): 7.79 mU/mg tissue protein and 7.79 ± 1.93 mU/mg tissue protein
- Acetylcholinesterase (AchE) activity ([1]; Neuromide 100 mg/kg oral): 6.19 mU/mg tissue protein and 6.19 ± 1.84 mU/mg tissue protein
- Weight ([2]; Neuromide 16 mg/kg oral, day 0 after administration): 34.9 ± 0.4 g
- Weight ([2]; Neuromide 16 mg/kg oral, day 1 after administration): 35.1 ± 0.4 g
- Weight ([2]; Neuromide 16 mg/kg oral, day 5 after administration): 35.9 ± 0.4 g
- Weight ([2]; Neuromide 16 mg/kg oral, day 8 after administration): 36.4 ± 0.5 g
- Weight ([2]; Neuromide 16 mg/kg oral, day 12 after administration): 36.4 ± 0.5 g
- Weight ([2]; Neuromide 16 mg/kg oral, day 15 after administration): 36.3 ± 0.6 g
- Weight ([2]; Neuromide 16 mg/kg oral, day 19 after administration): 37.3 ± 0.7 g
- Weight ([2]; Neuromide 16 mg/kg oral, day 22 after administration): 37.2 ± 1^ g
- Weight ([2]; Neuromide 16 mg/kg oral, day 26 after administration): 37.2 ± 0.8 g
- Weight ([2]; Neuromide 16 mg/kg oral, day 29 after administration): 37.1 ± 0.9 g
- Weight ([2]; Neuromide 40 mg/kg oral, day 0 after administration): 34.9 ± 0.4 g
- Weight ([2]; Neuromide 40 mg/kg oral, day 1 after administration): 35.5 ± 0.4 g
- Weight ([2]; Neuromide 40 mg/kg oral, day 5 after administration): 36 ± 0.3 g
- Weight ([2]; Neuromide 40 mg/kg oral, day 8 after administration): 36.7 ± 0.4 g
- Weight ([2]; Neuromide 40 mg/kg oral, day 12 after administration): 37.2 ± 0.4 g
- Weight ([2]; Neuromide 40 mg/kg oral, day 15 after administration): 37.5 ± 0.4 g
- Weight ([2]; Neuromide 40 mg/kg oral, day 19 after administration): 37.8 ± 0.4 g
- Weight ([2]; Neuromide 40 mg/kg oral, day 22 after administration): 38 ± 0.4 g
- Weight ([2]; Neuromide 40 mg/kg oral, day 26 after administration): 38.3 ± 0.4 g
- Weight ([2]; Neuromide 40 mg/kg oral, day 29 after administration): 37.9 ± 0.5 g
- Weight ([2]; Neuromide 100 mg/kg oral, day 0 after administration): 34.9 ± 0.4 g
- Weight ([2]; Neuromide 100 mg/kg oral, day 1 after administration): 35.3 ± 0.5 g
- Weight ([2]; Neuromide 100 mg/kg oral, day 5 after administration): 36.2 ± 0.5 g
- Weight ([2]; Neuromide 100 mg/kg oral, day 8 after administration): 36.7 ± 0.7 g
- Weight ([2]; Neuromide 100 mg/kg oral, day 12 after administration): 37.6 ± 0.5 g
- Weight ([2]; Neuromide 100 mg/kg oral, day 15 after administration): 38 ± 0.6 g
- Weight ([2]; Neuromide 100 mg/kg oral, day 19 after administration): 38.6 ± 0.6 g
- Weight ([2]; Neuromide 100 mg/kg oral, day 22 after administration): 38.4 ± 0.7 g
- Weight ([2]; Neuromide 100 mg/kg oral, day 26 after administration): 38.8 ± 0.6 g
- Weight ([2]; Neuromide 100 mg/kg oral, day 29 after administration): 38.9 ± 0.8 g
- Acetylcholine (acetylcholine; Neuromide 16 mg/kg oral): 1.1 Nmol/mg protein and 1.1 ± 0.1 Nmol/mg protein
- Acetylcholine (acetylcholine; Neuromide 40 mg/kg oral): 1.1 Nmol/mg protein and 1.1 ± 0.3 Nmol/mg protein
- Acetylcholine (acetylcholine; Neuromide 100 mg/kg oral): 1.5 Nmol/mg protein and 1.5 ± 0.2 Nmol/mg protein
